{
  "source": "patent US20150374691A1",
  "about": "“METHODS AND MATERIALS FOR TREATING ORTHOSTATIC HYPOTENSION OR POSTURAL TACHYCARDIA SYNDROME” (Mayo Foundation for Medical Education and Research, priority 2009, published 2015)",
  "key": {"[1]": {"system": "patients with myasthenic syndromes", "details": "among 132 patients enrolled, cited from earlier work"}, "[2]": {"system": "patient with Lambert-Eaton myasthenic syndrome who also suffered from orthostatic hypotension", "experiment": "blood pressure and heart rate response to head-up tilt before and after 3,4-DAP", "assay_type": "in vivo, human", "details": "one patient, after oral administration of 20 mg 3,4-DAP; before administration a significant drop was observed (FIG. 1)", "description": "FIG. 1 is a graph plotting the blood pressure and heart rate response to head-up tilt in a patient with orthostatic hypotension before (left) and after (right) oral administration of 20 mg of 3,4-DAP.\nThe effects of administering 3,4-DAP to a patient with orthostatic hypotension were studied. Briefly, the blood pressure and heart rate response to head-up tilt was studied in a patient with Lambert-Eaton myasthenic syndrome who also suffered from orthostatic hypotension before and after oral administration of 20 mg 3,4-DAP. Before administration of 3,4-DAP, a significant orthostatic blood pressure drop was observed after a head-up tilt (FIG. 1, left)."}},
  "data": [
    {"smiles": "Nc1ccncc1N", "note": "[3,4-DAP, 3,4-diaminopyridine]", "values": [
      {"measurement": "seizures", "setting": "[1]; after being on the medication for years, clear cause-effect relationship not established", "value": "two patients experienced a self-limited seizure"},
      {"measurement": "complications related to cardiac arrhythmias", "setting": "[1]", "value": "no noted complications related to cardiac arrhythmias"},
      {"measurement": "orthostatic blood pressure drop after a head-up tilt", "setting": "[2]", "value": "did not exhibit a significant orthostatic blood pressure drop"}
    ]}
  ]
}
